These results are taken from ChEMBL document CHEMBL4390652, “Design, biological evaluation and X-ray crystallography of nanomolar multifunctional ligands targeting simultaneously acetylcholinesterase and glycogen synthase kinase-3” (Eur J Med Chem, 2019).

Data set [1] has as its target Acetylcholinesterase (Homo sapiens, UniProt P22303). As to the kind of experiment: Inhibition of human recombinant AChE using ATCh as substrate preincubated for 20 mins followed by substrate addition and measured for 3 mins by Ellman method. In general terms: Ellman's reagent forms a yellow product with free thiols.
In data set [2] the test system is SH-SY5Y. As to the kind of experiment: Cytotoxicity against human SH-SY5Y cells assessed as reduction in cell viability incubated for 72 hrs by MTT assay. It is filed as cell-based.
The test system of data set [3] is MDA-MB-231. Description: Cytotoxicity against human MDA-MB-231 cells assessed as growth inhibition incubated for 48 hrs by Hoechst 33342 staining based assay. Format: cell-based. The conditions noted are these: MDA-MB-231, 48 h.
The target of data set [4] is Cyclin-dependent kinase 5/CDK5 activator 1 (Homo sapiens, UniProt Q00535). Format: protein-complex assay.
Cyclin-dependent kinase 5/CDK5 activator 1, sequence (Q00535 whole entry): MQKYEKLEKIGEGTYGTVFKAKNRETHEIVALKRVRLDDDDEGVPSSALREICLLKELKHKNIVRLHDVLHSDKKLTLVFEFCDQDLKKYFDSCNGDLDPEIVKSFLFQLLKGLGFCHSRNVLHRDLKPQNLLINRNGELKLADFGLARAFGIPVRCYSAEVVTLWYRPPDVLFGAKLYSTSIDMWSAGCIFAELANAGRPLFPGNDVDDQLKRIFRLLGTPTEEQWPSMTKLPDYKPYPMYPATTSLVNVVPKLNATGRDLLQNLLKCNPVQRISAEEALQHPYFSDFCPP
Cyclin-dependent kinase 5/CDK5 activator 1, sequence (Q15078 whole entry, further chain): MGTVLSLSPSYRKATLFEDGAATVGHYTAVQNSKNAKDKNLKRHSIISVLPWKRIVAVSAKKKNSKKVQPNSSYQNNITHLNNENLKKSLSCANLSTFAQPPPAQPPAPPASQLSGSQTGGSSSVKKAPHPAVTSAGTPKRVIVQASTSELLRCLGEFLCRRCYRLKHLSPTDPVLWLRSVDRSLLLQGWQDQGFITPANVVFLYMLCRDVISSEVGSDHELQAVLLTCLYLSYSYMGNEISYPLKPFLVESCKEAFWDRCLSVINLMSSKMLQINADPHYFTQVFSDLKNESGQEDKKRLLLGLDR
Description: Inhibition of human recombinant CDK5/p25 using histone H1 as substrate in presence of [gamma-33P]ATP incubated for 30 mins by liquid scintillation counting assay
Data set [5] relates to Huh-7. Description: Cytotoxicity against human HuH7 cells assessed as growth inhibition incubated for 48 hrs by Hoechst 33342 staining based assay. It is filed as cell-based. As to conditions: Huh-7, 48 h.
In data set [6] the test system is MDR1. As to the kind of experiment: in vitro. As to conditions: dog, MDCK-MDR1.
Description: Apparent permeability across basolateral to apical side in MDCK2-MDR1 cells by HPLC analysis
The target of data set [7] is Glycogen synthase kinase-3 (Sus scrofa, UniProt B2LUN4+I6LNT8).
Description: Inhibition of native porcine brain GSK-3alpha/beta using GS-1 as substrate incubated for 30 mins in presence of [gamma-33P]ATP by liquid scintillation counting assay
The subject of data set [8] is Caco-2. Description: Cytotoxicity against human Caco2 cells assessed as growth inhibition incubated for 48 hrs by Hoechst 33342 staining based assay. It is filed as cell-based. As to conditions: Caco-2, 48 h.
Data set [9] can be described thus: Cytotoxicity against human SH-SY5Y cells assessed as reduction in cell viability at 100 uM incubated for 24 hrs by MTT assay relative to untreated cells. It is filed as cell-based. The conditions noted are these: read-out: INH. (In general: Tetrazolium dyes change colour on reduction, which living cells bring about.)
In data set [10] the test system is MDR1. As to the kind of experiment: in vitro. The conditions noted are these: dog, MDCK-MDR1. The source holds these as a separate data set.
Description: Efflux ratio of apparent permeability from basolateral to apical over apical to basolateral side in MDCK2-MDR1 cells by HPLC analysis
Data set [11] relates to NCI-H727. As to the kind of experiment: Cytotoxicity against human NCI-H727 cells assessed as growth inhibition incubated for 48 hrs by Hoechst 33342 staining based assay. The conditions noted are these: NCI-H727, 48 h. Format: cell-based.
Data set [12] relates to MDR1. As to the kind of experiment: in vitro. As to conditions: dog, MDCK-MDR1. This is another data set of the same source.
Description: Apparent permeability across apical to basolateral side in MDCK2-MDR1 cells by HPLC analysis
Data set [13] has as its system HaCaT. As to the kind of experiment: Cytotoxicity against human HaCaT cells assessed as growth inhibition incubated for 48 hrs by Hoechst 33342 staining based assay. Format: cell-based.
Data set [14] relates to HCT-116. Description: Cytotoxicity against human HCT116 cells assessed as growth inhibition incubated for 48 hrs by Hoechst 33342 staining based assay. As to conditions: HCT-116, 48 h. Format: cell-based.
In data set [15] the test system is MDCK-MDR1. As to the kind of experiment: Cytotoxicity against MDCK2-MDR1 cells assessed as reduction in cell viability at 75 uM incubated for 2 hrs by MTT assay. As to conditions: dog, mdck-mdr1, 2 h. Format: ADME, cell-based, Canis lupus familiaris.
Data set [16] has as its system PC-3. Description: Cytotoxicity against human PC3 cells assessed as growth inhibition incubated for 48 hrs by Hoechst 33342 staining based assay. Format: cell-based. As to conditions: PC-3, 48 h.
Data set [17] deals with Cholinesterase (Homo sapiens, UniProt P06276). As to the kind of experiment: Inhibition of human serum BChE using BTCh as substrate preincubated for 20 mins followed by substrate addition and measured for 3 mins by Ellman's method.
Cholinesterase, sequence (P06276 whole entry): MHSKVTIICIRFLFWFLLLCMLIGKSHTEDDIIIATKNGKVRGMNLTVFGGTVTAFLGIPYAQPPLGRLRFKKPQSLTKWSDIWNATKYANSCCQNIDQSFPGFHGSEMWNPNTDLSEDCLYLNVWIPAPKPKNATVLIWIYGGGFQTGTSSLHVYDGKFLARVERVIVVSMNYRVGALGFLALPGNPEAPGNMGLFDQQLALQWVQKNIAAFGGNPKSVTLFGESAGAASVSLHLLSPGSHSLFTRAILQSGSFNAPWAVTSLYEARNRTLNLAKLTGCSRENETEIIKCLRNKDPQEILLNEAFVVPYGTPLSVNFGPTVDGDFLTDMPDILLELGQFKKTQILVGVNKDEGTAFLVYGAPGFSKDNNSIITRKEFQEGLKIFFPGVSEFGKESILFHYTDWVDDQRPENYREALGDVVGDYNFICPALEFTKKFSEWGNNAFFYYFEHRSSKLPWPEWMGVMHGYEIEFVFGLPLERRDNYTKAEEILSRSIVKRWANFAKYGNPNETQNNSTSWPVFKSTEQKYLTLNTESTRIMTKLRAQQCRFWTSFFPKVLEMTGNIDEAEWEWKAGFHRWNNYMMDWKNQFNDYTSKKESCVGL

The structures appear in SMILES notation.

Acetylcholinesterase, sequence (P22303 whole entry): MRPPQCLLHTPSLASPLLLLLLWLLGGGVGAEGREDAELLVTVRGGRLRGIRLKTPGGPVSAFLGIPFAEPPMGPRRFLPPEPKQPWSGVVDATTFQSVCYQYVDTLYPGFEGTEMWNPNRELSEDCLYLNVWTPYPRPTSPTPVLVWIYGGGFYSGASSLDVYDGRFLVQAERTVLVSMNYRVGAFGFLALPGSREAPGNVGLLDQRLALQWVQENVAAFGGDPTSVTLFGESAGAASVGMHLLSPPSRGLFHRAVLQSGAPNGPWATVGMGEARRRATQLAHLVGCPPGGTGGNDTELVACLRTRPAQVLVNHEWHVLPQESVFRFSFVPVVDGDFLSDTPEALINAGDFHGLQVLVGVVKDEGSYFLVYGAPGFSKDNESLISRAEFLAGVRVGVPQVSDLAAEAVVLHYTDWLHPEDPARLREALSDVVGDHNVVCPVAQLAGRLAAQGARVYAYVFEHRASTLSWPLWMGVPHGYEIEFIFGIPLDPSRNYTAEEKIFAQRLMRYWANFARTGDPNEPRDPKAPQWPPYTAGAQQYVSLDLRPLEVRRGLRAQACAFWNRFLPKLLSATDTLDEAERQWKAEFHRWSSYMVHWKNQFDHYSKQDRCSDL

For the compound `O=C(Nc1cc(COCc2cn(CCNc3c4c(nc5ccccc35)CCCC4)nn2)ccn1)Nc1cccc2c1C1CCCCN1C2=O` (racemic), the IC50 was determined as 20.8 nM in data set [1]; 22000 nM in [2]; 4000 nM in data set [3]; 300 nM in data set [4]; 4000 nM in [5]; 10 nM in [7]. Moreover, the IC50 in [8] was 20000 nM; in [11], 9000 nM; in data set [13], 4000 nM; in data set [14], 4000 nM; in [16], 7000 nM; in [17], 169 nM. The same compound showed a Papp B→A in data set [6] of 20.8 ×10⁻⁶ cm/s. Moreover, in data set [9], the cytotoxicity at 24 h, 100 µM was found to be 50%. The efflux ratio in data set [10] was 1.54. For the same compound, in data set [12], the Papp A→B amounted to 13.5 ×10⁻⁶ cm/s. Also, the Activity result in data set [15] was “Non-Toxic”.
On to `O=C(Nc1cccc(-c2cn(CCNc3c4c(nc5ccccc35)CCCC4)nn2)n1)Nc1cccc2c1C1CCCCN1C2=O` (racemic), for which the half-maximal inhibitory concentration (IC50) in [1] was 133 nM; in [3], 17000 nM; in data set [4] it was 3100 nM; in data set [5] it was 18000 nM; in [7] it was 4200 nM; in data set [8], 24000 nM. The IC50 in data set [11] is above 25000 nM; in data set [14], 17000 nM; in [16], 27000 nM; in data set [17], 21.1 nM.
In the case of `C#CCCc1ccnc(NC(=O)Nc2cccc3c2C2CCCCN2C3=O)c1` (racemic), the values for the half-inhibitory concentration (IC50) in data set [4] and in data set [7] were 70 nM and 15 nM, respectively.
With `O=C(Nc1cc(COCc2cn(CCNc3ccncc3)nn2)ccn1)Nc1cccc2c1C1CCCCN1C2=O` (racemic), the IC50 came to 200 nM in data set [4] and 30 nM in data set [7].
The matching figures for `C#Cc1ccnc(NC(=O)Nc2cccc3c2C2CCCCN2C3=O)c1` (racemic): 68 nM and 41 nM.
For `CN(Cc1ccnc(NC(=O)Nc2cccc3c2C2CCCCN2C3=O)c1)Cc1cn(CCNc2c3c(nc4ccccc24)CCCC3)nn1` (racemic), the IC50 was found to be 58.6 nM in data set [1]; 25000 nM in [2]; 2000 nM in [3]; 310 nM in [4]; 2000 nM in data set [5]; 10 nM in data set [7]. Moreover, the IC50 in data set [8] is 9000 nM; in data set [11], 4000 nM; in [13] it was 2000 nM; in data set [14], 2000 nM; in [16] it was 3000 nM; in data set [17], 206 nM. The Papp B→A in [6] amounted to 8.4 ×10⁻⁶ cm/s. For the same compound, the cytotoxicity at 24 h, 100 µM in [9] was 50%. In [10], the efflux ratio is 0.83. The Papp A→B in data set [12] came out at 10.1 ×10⁻⁶ cm/s. Also, in data set [15], the Activity result is recorded as “Non-Toxic”.
Consider `c1ccc2c(NCCn3ccnn3)c3c(nc2c1)CCCC3`, for which the IC50 in data set [4] and in data set [7] was above 10000 nM each time.
For `O=C(Nc1ccc(-c2cn(CCNc3c4c(nc5ccccc35)CCCC4)nn2)cn1)Nc1cccc2c1C1CCCCN1C2=O` (racemic), the IC50 in data set [1] was 0.8 nM; in data set [3] it was above 25000 nM; in [4], above 10000 nM; in data set [5], above 25000 nM; in data set [7] it was above 10000 nM; in data set [8] it was above 25000 nM. Also, the half-inhibitory concentration (IC50) in [11] is above 25000 nM; in [14] it was above 25000 nM; in [16], above 25000 nM; in [17], 185 nM.
`C#CCOCc1ccnc(NC(=O)Nc2cccc3c2C2CCCCN2C3=O)c1` (racemic): the IC50 was 150 nM in data set [4] and 60 nM in data set [7].
The matching figures for `O=C(Nc1cc(COCc2cn(CCNc3ccnc4ccccc34)nn2)ccn1)Nc1cccc2c1C1CCCCN1C2=O` (racemic): 240 nM and above 10000 nM.
The matching figures for `Cn1cc(COCc2ccnc(NC(=O)Nc3cccc4c3C3CCCCN3C4=O)c2)nn1` (racemic): 250 nM and 25 nM.
In the case of `O=C(Nc1cc(-c2cn(CCNc3c4c(nc5ccccc35)CCCC4)nn2)ccn1)Nc1cccc2c1[C@H]1CCCCN1C2=O`, the IC50 in data set [1] was 9.5 nM; in data set [3], 2000 nM; in [4] it was 500 nM; in data set [5], 3500 nM; in data set [7], 7 nM; in data set [8], 8000 nM. For the same compound, the IC50 in [11] turned out to be 5000 nM; in data set [14] it was 2200 nM; in data set [16] it was 3000 nM; in data set [17] it was 395 nM.
As for `C#CCN(C)Cc1ccnc(NC(=O)Nc2cccc3c2C2CCCCN2C3=O)c1` (racemic), the IC50 amounted to 90 nM in data set [4] and 11 nM in [7].
In the same order, the values of `C#Cc1ccc(NC(=O)Nc2cccc3c2C2CCCCN2C3=O)nc1` (racemic) are above 10000 nM and above 10000 nM.
The matching figures for `C#Cc1cccc(NC(=O)Nc2cccc3c2C2CCCCN2C3=O)n1` (racemic): 80 nM and 300 nM.
On to `O=C(Nc1cc(-c2cn(CCNc3c4c(nc5ccccc35)CCCC4)nn2)ccn1)Nc1cccc2c1[C@@H]1CCCCN1C2=O`, for which the IC50 in data set [1] came out at 13.7 nM; in [3], 4000 nM; in data set [4], 1100 nM; in [5], 2600 nM; in data set [7], 19 nM; in data set [8] it was 10000 nM. Further, the IC50 in data set [11] was determined as 7000 nM; in data set [14], 2700 nM; in data set [16] it was 6000 nM; in data set [17] it was 254 nM.
Regarding `O=C(Nc1cc(COCc2cn(CCCc3ccccc3)nn2)ccn1)Nc1cccc2c1C1CCCCN1C2=O` (racemic), the IC50 came to 260 nM in data set [4] and 8 nM in data set [7].
Turning to `O=C(Nc1cc(CCc2cn(CCNc3c4c(nc5ccccc35)CCCC4)nn2)ccn1)Nc1cccc2c1C1CCCCN1C2=O` (racemic), the IC50 in data set [1] was 23.6 nM; in data set [3], 2000 nM; in data set [4], 800 nM; in data set [5], 2900 nM; in [7], 21 nM; in data set [8], 4800 nM. For the same compound, the IC50 stood at 6300 nM in [11]; 1900 nM in data set [13]; 1100 nM in data set [14]; 1600 nM in [16]; 65.7 nM in [17].
Turning to `C#Cc1ccnc(NC(=O)Nc2cccc3c2[C@@H]2CCCCN2C3=O)c1`, the half-inhibitory concentration (IC50) in data set [4] worked out at 50 nM; in data set [7], 90 nM.
The matching figures for `C#Cc1ccnc(NC(=O)Nc2cccc3c2[C@H]2CCCCN2C3=O)c1`: 18 nM and 33 nM.

Broadly, the IC50 is the midpoint of a concentration-inhibition curve. For orientation: Papp B→A means the apparent permeability from the basolateral to the apical side of a cell layer. A word on the efflux ratio: it is a quotient of directional permeabilities that is used to spot active efflux. Broadly, the Papp A→B is the apparent permeability from the apical to the basolateral side of a cell layer.
